Data reported in the NIST ThermoML archive (doi:10.1021/je0340809).
Numbers after ± are expanded uncertainties.

Assay: xn = mol fraction of the nth substance listed
Conditions: 101.3 kPa, Liquid

CN1CCCC1=O [N-methylpyrrolidone] + O
Conditions | mass density, 318.15 K [kg/m3] | mass density, 328.15 K [kg/m3] | mass density, 338.15 K [kg/m3] | speed of sound, 318.15 K [m/s] | speed of sound, 328.15 K [m/s] | speed of sound, 338.15 K [m/s] | viscosity, 318.15 K [mPa·s] | viscosity, 328.15 K [mPa·s] | viscosity, 338.15 K [mPa·s]
x2 = 0.0522 | – | 1002.19 ± 0.52 | 993.182 ± 0.55 | – | 1451.9 ± 6.1 | 1410.7 ± 5.9 | – | 1.124 ± 0.027 | 0.987 ± 0.025
x2 = 0.1684 | – | 1004.9 ± 0.54 | 995.706 ± 0.53 | – | 1463.8 ± 6.1 | 1422.8 ± 6 | – | 1.194 ± 0.029 | 1.026 ± 0.025
x2 = 0.2465 | – | 1006.77 ± 0.55 | 997.455 ± 0.52 | – | 1478.8 ± 6.1 | 1437.4 ± 6 | – | 1.234 ± 0.03 | 1.048 ± 0.026
x2 = 0.3481 | – | 1009.34 ± 0.56 | 999.87 ± 0.51 | – | 1504.2 ± 6.2 | 1461.9 ± 6.1 | – | 1.357 ± 0.033 | 1.129 ± 0.028
x2 = 0.4534 | – | 1012.42 ± 0.58 | 1002.78 ± 0.52 | – | 1533.2 ± 6.3 | 1490.2 ± 6.2 | – | 1.647 ± 0.039 | 1.332 ± 0.032
x2 = 0.5018 | – | 1013.98 ± 0.59 | 1004.25 ± 0.53 | – | 1547.1 ± 6.4 | 1504 ± 6.2 | – | 1.827 ± 0.043 | 1.46 ± 0.035
x2 = 0.5493 | – | 1015.5 ± 0.6 | 1005.71 ± 0.54 | – | 1561.1 ± 6.4 | 1518 ± 6.3 | – | 2.011 ± 0.047 | 1.591 ± 0.038
x2 = 0.6504 | – | 1018.05 ± 0.61 | 1008.2 ± 0.56 | – | 1593.5 ± 6.5 | 1551 ± 6.4 | – | 2.308 ± 0.054 | 1.799 ± 0.043
x2 = 0.752 | – | 1017.63 ± 0.61 | 1008.09 ± 0.55 | – | 1627.4 ± 6.6 | 1587.1 ± 6.5 | – | 2.241 ± 0.052 | 1.74 ± 0.042
x2 = 0.8536 | – | 1010.77 ± 0.57 | 1002.25 ± 0.52 | 1674.5 ± 6.7 | 1646.4 ± 6.7 | 1613.3 ± 6.6 | 2.117 ± 0.05 | 1.645 ± 0.039 | 1.292 ± 0.032
x2 = 0.8742 | 1016.22 ± 0.6 | 1008.28 ± 0.55 | 1000.1 ± 0.5 | 1670.7 ± 6.7 | 1645 ± 6.7 | 1614.4 ± 6.6 | 1.882 ± 0.045 | 1.47 ± 0.035 | 1.161 ± 0.029
x2 = 0.8849 | 1014.55 ± 0.59 | 1006.83 ± 0.54 | 998.836 ± 0.51 | 1667.3 ± 6.7 | 1643.2 ± 6.6 | 1614.4 ± 6.6 | 1.754 ± 0.042 | 1.374 ± 0.033 | 1.089 ± 0.027
x2 = 0.8996 | 1012.06 ± 0.57 | 1004.66 ± 0.53 | 996.948 ± 0.52 | 1660.9 ± 6.7 | 1639.2 ± 6.6 | 1613 ± 6.6 | 1.576 ± 0.038 | 1.24 ± 0.03 | 0.99 ± 0.025
x2 = 0.9257 | 1007.08 ± 0.54 | 1000.32 ± 0.5 | 993.171 ± 0.54 | 1643.6 ± 6.6 | 1627.2 ± 6.6 | 1602.6 ± 6.5 | 1.261 ± 0.031 | 1.004 ± 0.025 | 0.813 ± 0.021
x2 = 0.9368 | 1004.77 ± 0.53 | 998.296 ± 0.51 | 991.416 ± 0.55 | 1633.5 ± 6.6 | 1619.9 ± 6.6 | 1602.1 ± 6.5 | 1.13 ± 0.028 | 0.907 ± 0.023 | 0.74 ± 0.019
x2 = 0.9557 | 1000.59 ± 0.5 | 994.66 ± 0.53 | 988.261 ± 0.57 | 1611.9 ± 6.5 | 1603.9 ± 6.5 | 1591.8 ± 6.5 | 0.928 ± 0.023 | 0.753 ± 0.02 | 0.627 ± 0.017
x2 = 0.9641 | 998.66 ± 0.51 | 992.982 ± 0.54 | 986.808 ± 0.58 | 1600.4 ± 6.5 | 1595.2 ± 6.5 | 1585.9 ± 6.5 | 0.845 ± 0.022 | 0.692 ± 0.018 | 0.58 ± 0.016
x2 = 0.9754 | 996.013 ± 0.52 | 990.687 ± 0.56 | 984.827 ± 0.59 | 1582.7 ± 6.5 | 1581.7 ± 6.5 | 1576.7 ± 6.4 | 0.747 ± 0.019 | 0.618 ± 0.017 | 0.524 ± 0.015
x2 = 0.99 | 992.557 ± 0.55 | 987.705 ± 0.58 | 982.266 ± 0.61 | 1556.1 ± 6.4 | 1561.2 ± 6.4 | 1562.4 ± 6.4 | 0.645 ± 0.017 | 0.541 ± 0.015 | 0.467 ± 0.013
